{"source": "PubChem BioAssay AID1671319", "biological_target": "Tyrosine-protein kinase Lyn (Homo sapiens) (UniProt P07948)", "sequence (P07948 whole entry, looked up, canonical isoform)": "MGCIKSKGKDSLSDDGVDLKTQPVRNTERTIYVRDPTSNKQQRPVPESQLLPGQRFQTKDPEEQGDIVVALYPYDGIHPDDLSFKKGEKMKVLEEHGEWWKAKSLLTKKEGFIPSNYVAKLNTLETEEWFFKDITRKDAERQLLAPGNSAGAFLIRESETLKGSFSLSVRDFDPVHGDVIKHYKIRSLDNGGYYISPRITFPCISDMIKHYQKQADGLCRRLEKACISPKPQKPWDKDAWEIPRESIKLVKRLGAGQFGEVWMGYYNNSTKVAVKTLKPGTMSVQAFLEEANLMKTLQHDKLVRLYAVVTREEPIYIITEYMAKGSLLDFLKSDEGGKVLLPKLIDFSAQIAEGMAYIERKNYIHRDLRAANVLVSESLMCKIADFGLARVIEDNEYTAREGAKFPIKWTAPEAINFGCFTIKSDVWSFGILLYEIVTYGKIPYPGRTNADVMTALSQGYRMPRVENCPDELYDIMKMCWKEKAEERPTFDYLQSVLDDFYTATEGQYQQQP", "test": "inhibitors of human LYN isoform B activity – biochemical, Z'-LYTE, FRET readout, dose response (AID 1671319)", "conditions": "Z'-LYTE FRET kinase assay, recombinant LYN B", "data": [{"compound": "COc1cc2ncnc(Nc3cccc(Cl)c3)c2cc1OC", "values": [{"measurement": "IC50", "value": 244, "unit": "nM"}]}]}
